In US20250073186A1, “COMBINATION TREATMENT METHODS” (Rose Research Center, LLC, priority 2021, published 2025):

Tests used:
cigarette smoking adults = experiment: Open-label switching study: side effects (AE/SAE reporting) and adherence; type: in vivo, human; settings: zonisamide added to bupropion
Experimental: There was a data collection period of at least five days to obtain baseline data on use of combustible cigarettes. Participants enrolled in the study received a G6 e-cigarette at V2 for ad libitum use.
At each session, expired air CO was measured along with blood pressure, heart rate, respiratory rate and body weight. Participants also completed questionnaires rating subjective effects of smoking and e-cigarette use. Participants were given enough cartomizers and study drugs to last until their next scheduled session, along with an extra 4 days' worth to allow for flexibility in case sessions need to be rescheduled. E-cigarette usage and study drug compliance were tracked not only by self-reported number of occasions used, but also by cartomizer counts (used or unused) and returned study drugs.
AE/SAE Reporting AEs/SAEs were assessed using questionnaires and interviews at the indicated time points and spontaneous reporting from the time of ICF signature until the EOS for the participant.

smokers [1] = settings: cited from earlier work
smokers [2] = settings: bupropion alone; cited from earlier work

Row | SMILES | effect on adverse events associated with bupropion, such as insomnia (cigarette smoking adults) | effect on anger, restlessness and impatience (smokers [1]; during smoking abstinence) | effect on ad libitum smoking (smokers [1]; in vivo) | effect on craving for cigarettes (smokers [1]; in vivo) | typical abstinence rate (smokers [2]) [%]
1 | NS(=O)(=O)Cc1noc2ccccc12 [zonisamide] | appeared to reduce incidences of adverse events associated with bupropion | decrease anger, restlessness and impatience | reduce ad libitum smoking | relieve craving for cigarettes | 
2 | CC(NC(C)(C)C)C(=O)c1cccc(Cl)c1 (centres unmarked) [bupropion] |  |  |  |  | ~25
